# Test results published in patent US8841254B2, “Method for treatment of anxiety” (Howard Florey Institute of Experimental Physiology and …, priority 2001, dated 2014).
# Assays:
# [1] = target: T1, relaxin binding sites in THP-1 cells (Homo sapiens, UniProt Q9HBX9); experiment: THP-1 cell binding assay (competition for 33P-labeled H2 relaxin (B33))
# T1 construct: induce cAMP production in the human monocytic cell line (THP-1); endogenous in cells; host or cells: THP-1 (human monocytic cell line)
# T1 sequence (Q9HBX9 1-757): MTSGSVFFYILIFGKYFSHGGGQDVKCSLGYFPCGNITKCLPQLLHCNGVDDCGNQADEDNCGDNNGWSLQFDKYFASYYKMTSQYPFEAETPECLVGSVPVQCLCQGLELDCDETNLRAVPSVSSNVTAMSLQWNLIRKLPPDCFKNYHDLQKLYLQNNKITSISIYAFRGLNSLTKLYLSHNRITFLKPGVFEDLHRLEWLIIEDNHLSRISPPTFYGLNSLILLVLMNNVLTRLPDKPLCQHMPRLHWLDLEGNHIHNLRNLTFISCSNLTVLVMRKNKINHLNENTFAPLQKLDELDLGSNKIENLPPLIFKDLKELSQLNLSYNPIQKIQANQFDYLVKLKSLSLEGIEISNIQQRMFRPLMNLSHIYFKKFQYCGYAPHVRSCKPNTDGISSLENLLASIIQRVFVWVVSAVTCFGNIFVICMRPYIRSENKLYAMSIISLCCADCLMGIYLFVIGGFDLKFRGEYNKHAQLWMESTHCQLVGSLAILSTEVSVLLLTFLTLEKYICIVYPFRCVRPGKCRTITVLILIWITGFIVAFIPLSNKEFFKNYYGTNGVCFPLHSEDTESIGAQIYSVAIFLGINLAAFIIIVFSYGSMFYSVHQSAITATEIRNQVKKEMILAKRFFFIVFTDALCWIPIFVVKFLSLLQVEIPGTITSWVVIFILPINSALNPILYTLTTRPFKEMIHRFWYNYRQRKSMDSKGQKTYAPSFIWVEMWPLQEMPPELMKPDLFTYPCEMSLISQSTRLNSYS
# Experimental: THP-1 cells were spun down and resuspended in binding buffer (20 mM HEPES, 50 mM NaCl, 1.5 mM CaCl2, 1% BSA, 0.1 mg/ml lysine, 0.01% […], pH 7.5) (Parsell et al (1996) J. Biol. Chem. 271, 27936-27941) to give 2×10^6 cells/well in a 96-well plate. The cells were incubated in binding buffer with ^33P-labeled H2 (B33) relaxin (100 pM: labeled as previously described (Tan et al (1999) Br. J. Pharmacol. 127, 91-98) at 25° C. for 90 min in the absence or presence of increasing concentrations of unlabeled H1, H2 and H3 relaxin ([…]). Non-specific binding was defined with H2 relaxin (1 μM). Cells were harvested using a Packard 96-well plate cell harvester and Whatman GF/C glass fibre filters treated with 0.5% polyethylenimine. The filters were washed three times with modified binding buffer (20 mM HEPES, 50 mM NaCl, 1.5 mM CaCl2), dried in a 37° C. oven, and the radioactivity counted by liquid scintillation spectrometry (TopCount™, Canberra Packard, Australia).
# [2] = tested on: goat anti-H2 relaxin antibody; experiment: Antibody crossreactivity radioimmunoassay (displacement of 125I-labeled H2 relaxin); assay type: binding; conditions: FIG. 4
# Experimental: The ability of well characterized human relaxin antibodies to recognize H3 relaxin was tested in comparison to H1 and H2 relaxins by radioimmunoassay. Briefly, goat anti-H2 relaxin (Lucas et al (1989) J. Endocrinol. 120, 449-57) was coated onto 96 well ELISA plates (Disposable Products, Adelaide, Australia) at a dilution of 1:1000 with 0.05M sodium carbonate buffer at 4° C. overnight. After washing twice with PBS-T (phosphate buffered saline; 0.05% Tween 20, pH 7.4) dilutions of human relaxin peptides dissolved in 50 μl of assay buffer (1% BSA in PBS-T) were added together with 50,000 cpm ^125I-labeled relaxin, in 50 μl of assay buffer. H2 relaxin was ^125I-labeled and purified by HPLC (Palejwala et al (1998) Endocrinology 139, 1208-1212). After an overnight incubation at 4° C. the plates were washed twice with PBS-T. The antibody-bound-^125I-labeled H2 relaxin was collected by the addition of 1M NaOH and decanted into tubes for counting on a Packard 5010 gamma counter (Canberra Packard). Experiments were performed at least twice and similar results obtained. Data was plotted as the mean±SEM from one representative experiment performed in triplicate and plotted using PRISM.
# [3] = target: T2, human relaxin receptors (THP-1 cells) (Homo sapiens, UniProt Q9HBX9); experiment: THP-1 cell bioassay (cAMP production); assay type: cell-based; conditions: doses up to 1 μM
# T2 construct: induce cAMP production in the human monocytic cell line (THP-1); endogenous in cells; host or cells: THP-1 (human monocytic cell line)
# T2 sequence (Q9HBX9 1-757): T1 sequence (Q9HBX9 1-757)
# Experimental: Biol. Chem. 271, 27936-27941), with the following modifications; […] The plate was then briefly centrifuged, the media removed and the cells resuspended in lysis buffer. cAMP levels were measured in the lysates using the cAMP Biotrak EIA system (Amersham International, Aylesbury, UK). […] Data represent the mean±SEM of three experiments performed in quadruplicate, and are plotted using PRISM (Graphpad Inc., San Diego, Calif.).
Compound,Ki [1],ability to displace 125I-labeled H2 relaxin binding to the anti-H2 relaxin antibody [2],ability to stimulate cAMP responses [3]
"CC[C@H](C)[C@@H]1NC(=O)[C@H](Cc2ccccc2)NC(=O)[C@H](CCC(=O)O)NC(=O)[C@H](CCCNC(=N)N)NC(=O)CNC(=O)[C@@H](NC(=O)[C@H](CC(C)C)NC(=O)[C@H](CCCNC(=N)N)NC(=O)[C@@H](NC(=O)CNC(=O)[C@H](Cc2ccc(O)cc2)NC(=O)[C@@H]2CCCN2C(=O)[C@H](C)NC(=O)[C@H](C)NC(=O)[C@@H](N)CCCNC(=N)N)C(C)C)CSSC[C@@H]2NC(=O)[C@@H](NC(=O)[C@H](CO)NC(=O)[C@H](CO)NC(=O)[C@H](CO)NC(=O)[C@H](CC(C)C)NC(=O)CNC(=O)[C@H](C)NC(=O)[C@H](CC(C)C)NC(=O)[C@@H](NC(=O)[C@@H](N)CC(=O)O)C(C)C)CSSC[C@H](NC(=O)CNC(=O)[C@H](Cc3c[nH]c4ccccc34)NC(=O)[C@H](CCCCN)NC2=O)C(=O)N[C@@H](CO)C(=O)N[C@@H](CCCCN)C(=O)N[C@@H](CO)C(=O)N[C@@H](CCC(=O)O)C(=O)N[C@@H]([C@@H](C)CC)C(=O)N[C@@H](CO)C(=O)N[C@@H](CO)C(=O)N[C@@H](CC(C)C)C(=O)N[C@H](C(N)=O)CSSC[C@@H](C(=O)NCC(=O)NCC(=O)N[C@@H](CO)C(=O)N[C@@H](CCCNC(=N)N)C(=O)N[C@@H](Cc2c[nH]c3ccccc23)C(N)=O)NC(=O)[C@H]([C@@H](C)O)NC(=O)[C@H](Cc2ccccc2)NC(=O)[C@H]([C@@H](C)CC)NC(=O)[C@H](C(C)C)NC(=O)[C@H](C)NC(=O)[C@H](CCCNC(=N)N)NC1=O [H3 relaxin, Human Relaxin H3 [hR]x-3 A (1-24) Amide-B (1-27) Amide]",31.6 nM,poor cross reactivity,
"H2 relaxin: recombinant H2 relaxin, a gift from the Connetics Corporation",,able to displace,
bovine insulin [bINSL],,,inability
hINSL3: Human INSL3 synthesized using the same methodology used for ovine INSL3 (chain 1 AAATNPARYCCLSGCTQQDLLTLCPY; chain 2 PTPEMREKLCGHHFVRALVRVCGGPRWSTEA),,,inability
